The values that follow come from article PMC12339982 (Nature Communications, 2025).

Changes are numbered by the printed parent chain.

The target in one assay is T1, TauT L306A mutant (Homo sapiens, UniProt P31641, L306A).
T1 sequence (P31641 1-620 L306A): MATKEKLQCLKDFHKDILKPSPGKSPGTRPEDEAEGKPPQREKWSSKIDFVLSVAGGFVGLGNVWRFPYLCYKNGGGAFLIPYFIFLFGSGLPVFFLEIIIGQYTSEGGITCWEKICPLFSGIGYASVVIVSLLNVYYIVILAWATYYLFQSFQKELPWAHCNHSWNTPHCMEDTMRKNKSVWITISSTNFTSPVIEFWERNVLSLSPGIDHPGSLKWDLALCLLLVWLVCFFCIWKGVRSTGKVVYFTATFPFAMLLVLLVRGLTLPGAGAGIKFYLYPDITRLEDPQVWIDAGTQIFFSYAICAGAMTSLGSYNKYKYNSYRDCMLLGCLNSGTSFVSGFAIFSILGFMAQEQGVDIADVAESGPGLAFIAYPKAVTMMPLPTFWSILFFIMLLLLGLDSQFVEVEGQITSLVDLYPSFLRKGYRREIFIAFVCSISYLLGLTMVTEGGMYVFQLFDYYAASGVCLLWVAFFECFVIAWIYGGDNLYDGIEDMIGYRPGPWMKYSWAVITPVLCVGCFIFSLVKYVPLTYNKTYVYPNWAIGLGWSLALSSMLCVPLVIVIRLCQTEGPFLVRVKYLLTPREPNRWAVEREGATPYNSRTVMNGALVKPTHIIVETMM
Put plainly: MST binding, TauT L306A. The settings on record: mean ± s.e.m., n=3.

Assay [1] concerns the target T2, TauT^WT and variants (Homo sapiens, UniProt P31641, E406C).
T2 sequence (P31641 1-620 E406C): T1 sequence (P31641 1-620 L306A) with A306L, E406C
Put plainly: [3H]γ-aminobutyric acid uptake by TauT^WT and variants in HEK293T cells. The assay is classed as cell-based. The settings on record: mutation Glu406Cys.

Assay [2] deals with TauT^WT and variants. Described as above. The assay is classed as cell-based, human. The settings on record: amino acid substitutions in Gly57, Phe58, Leu306.
The target of the next assay is T3, TauT^EM (Homo sapiens, UniProt P31641, D486N/D490E/E493R/G491D/K319H/L488F/N487R/R499P/S322V/Y320N/Y489S/Y498F).
T3 sequence (P31641 1-620 K319H/Y320N/S322V/D486N/N487R/L488F/Y489S/D490E/G491D/E493R/Y498F/R499P): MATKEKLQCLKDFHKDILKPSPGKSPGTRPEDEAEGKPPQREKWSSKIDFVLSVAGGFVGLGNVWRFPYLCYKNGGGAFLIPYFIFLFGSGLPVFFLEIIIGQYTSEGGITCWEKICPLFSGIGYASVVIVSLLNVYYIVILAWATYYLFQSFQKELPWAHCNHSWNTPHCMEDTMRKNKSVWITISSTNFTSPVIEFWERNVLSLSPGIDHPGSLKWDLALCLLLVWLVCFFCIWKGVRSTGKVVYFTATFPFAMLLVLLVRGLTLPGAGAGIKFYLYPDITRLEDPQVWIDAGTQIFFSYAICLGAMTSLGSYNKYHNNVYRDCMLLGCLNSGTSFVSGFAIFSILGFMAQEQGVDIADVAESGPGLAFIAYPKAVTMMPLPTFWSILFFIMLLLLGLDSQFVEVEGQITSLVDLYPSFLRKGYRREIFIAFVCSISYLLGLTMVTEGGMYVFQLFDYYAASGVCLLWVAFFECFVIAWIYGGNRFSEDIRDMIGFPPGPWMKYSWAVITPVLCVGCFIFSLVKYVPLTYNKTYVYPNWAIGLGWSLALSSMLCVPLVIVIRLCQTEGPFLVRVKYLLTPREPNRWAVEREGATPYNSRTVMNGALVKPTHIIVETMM
Put plainly: MST binding, TauT^EM. The settings on record: compared with TauT^WT.

Turning to `[H]/N=C(/N)NCC(=O)O` [GAA, guanidinoacetate], the “Kd (MST)” value at TauT L306A mutant is recorded as “drastic loss of GAA binding affinity”.

`NCCCC(=O)O` [GABA, γ-aminobutyric acid]: the “transport activity of GABA” value at TauT^WT and variants [1] is given as “significant increase in the transport activity”. In addition, the “transport activity for GABA” value in the assay with TauT^WT and variants [2] was “decrease in transport activity”.

As to `NCCS(=O)(=O)O` [Taurine, taurine], the “binding affinity (Kd, MST) of TauT^EM” value at TauT^EM is listed as “analogous to those of TauT^WT”.
